{
  "source": "paper PMC12396409",
  "about": "“Screening and hit evaluation of a microbial metabolite library against the pathogenic Plasmodium falciparum and Toxoplasma gondii parasites” (International Journal for Parasitology: Drugs and Drug …, 2025)",
  "key": {"[1]": {"system": "P. falciparum 3D7 parasites", "test": "P. falciparum growth inhibition assay, 1-cycle (72 h treatment), SYBR DNA staining (library screen at 2 μg/mL and dose-response)", "format": "cell-based, Plasmodium falciparum"}, "[2]": {"system": "P. falciparum 3D7 parasites", "test": "P. falciparum growth inhibition assay, 2-cycle (120 h treatment), delayed-death screen and dose-response", "format": "cell-based, Plasmodium falciparum", "details": "for activity at 2 µg/mL: Plasmodium falciparum"}, "[3]": {"system": "T. gondii RH strain (RH-Tub-eYFP) tachyzoites", "test": "microbe, parasite or virus in culture", "format": "cell-based, Toxoplasma gondii", "details": "72 h, 72 h; for percent parasite growth at 2 µg/mL: Toxoplasma gondii"}, "[4]": {"details": "library screen at 2 μg/mL, 72 h, % growth, replicate 1"}, "[5]": {"details": "library screen at 2 μg/mL, 72 h, % growth, replicate 2"}, "[6]": {"details": "library screen at 2 μg/mL, 120 h, % growth, replicate 1"}, "[7]": {"details": "library screen at 2 μg/mL, 120 h, % growth, replicate 2"}, "[8]": {"details": "library screen at 2 μg/mL, % growth, replicate 1"}, "[9]": {"details": "library screen at 2 μg/mL, % growth, replicate 2"}},
  "note": "Like-named read-outs stand apart in the source and are kept apart here.",
  "data": [
    {"smiles": "CO[C@@H]1[C@H](O)C[C@@H](O[C@@H]2C[C@H](Oc3cc4cc5c(c(O)c4c(O)c3C)C(=O)[C@@H](O[C@H]3C[C@@H](O[C@H]4C[C@@H](O[C@H]6C[C@](C)(O)[C@@H](OC(C)=O)[C@H](C)O6)[C@H](O)[C@@H](C)O4)[C@H](O)[C@@H](C)O3)[C@H]([C@H](OC)C(=O)[C@@H](O)[C@@H](C)O)C5)O[C@H](C)[C@@H]2OC(C)=O)O[C@@H]1C", "note": "[Chromomycin A3]", "values": [
      {"measurement": "activity at 2 µg/mL", "setting": "[1]; Plasmodium falciparum, 3D7, 72 h, P. falciparum, 72 h, screen at 2 μg/mL, replicate 1, read-out: Pf_72h_%Growth_Rep1", "value": -1.98, "unit": "%"},
      {"measurement": "activity at 2 µg/mL", "setting": "[1]; Plasmodium falciparum, 3D7, 72 h, P. falciparum, 72 h, screen at 2 μg/mL, replicate 2, read-out: Pf_72h_%Growth_Rep2", "value": 0.17, "unit": "%"},
      {"measurement": "activity at 2 µg/mL", "setting": "[2]; 3D7, 120 h, P. falciparum, 120 h, screen at 2 μg/mL, replicate 1, read-out: Pf_120h_%Growth_Rep1", "value": 2.76, "unit": "%"},
      {"measurement": "activity at 2 µg/mL", "setting": "[2]; 3D7, 120 h, P. falciparum, 120 h, screen at 2 μg/mL, replicate 2, read-out: Pf_120h_%Growth_Rep2", "value": -4.9, "unit": "%"},
      {"measurement": "percent parasite growth at 2 µg/mL", "setting": "[3]; T. gondii, screen at 2 μg/mL, replicate 1, read-out: Tg_72h_%Growth_Rep1", "value": 1.51, "unit": "%"},
      {"measurement": "percent parasite growth at 2 µg/mL", "setting": "[3]; T. gondii, screen at 2 μg/mL, replicate 2, read-out: Tg_72h_%Growth_Rep2", "value": 1.99, "unit": "%"}
    ]},
    {"smiles": "COC1=C(OC)C(=O)[C@@H](C)[C@H](C)C1=O", "note": "[BIA-G1680]", "values": [
      {"measurement": "Pf_72h_%Growth_Rep1", "setting": "[1]; P. falciparum 3D7, 72 h, library screen at 2 μg/mL, % growth, replicate 1", "value": 4.48, "unit": "%"},
      {"measurement": "Pf_72h_%Growth_Rep2", "setting": "[1]; P. falciparum 3D7, 72 h, library screen at 2 μg/mL, % growth, replicate 2", "value": 3.13, "unit": "%"},
      {"measurement": "Pf_120h_%Growth_Rep1", "setting": "[2]; P. falciparum 3D7, 120 h, library screen at 2 μg/mL, % growth, replicate 1", "value": 27.26, "unit": "%"},
      {"measurement": "Pf_120h_%Growth_Rep2", "setting": "[2]; P. falciparum 3D7, 120 h, library screen at 2 μg/mL, % growth, replicate 2", "value": 12.29, "unit": "%"},
      {"measurement": "Tg_72h_%Growth_Rep1", "setting": "[3]; T. gondii RH, library screen at 2 μg/mL, % growth, replicate 1", "value": 146.51, "unit": "%"},
      {"measurement": "Tg_72h_%Growth_Rep2", "setting": "[3]; T. gondii RH, library screen at 2 μg/mL, % growth, replicate 2", "value": 97.35, "unit": "%"}
    ]},
    {"smiles": "C[C@H]1O[C@H](O[C@H]2[C@H](O)[C@@H](O)[C@@H](O[C@H]3[C@H](O)[C@@H](O)C(O)O[C@@H]3CO)O[C@@H]2CO)[C@H](O)[C@@H](O)[C@@H]1N[C@H]1C=C(CO)[C@@H](O)[C@H](O)[C@H]1O", "note": "(stereo partly shown) [Acarbose]", "values": [
      {"measurement": "activity at 2 µg/mL", "setting": "[1]; Plasmodium falciparum, 3D7, library screen at 2 μg/mL, 72 h, % growth, replicate 1, read-out: Pf_72h_%Growth_Rep1", "value": 83.3, "unit": "%"},
      {"measurement": "activity at 2 µg/mL", "setting": "[1]; Plasmodium falciparum, 3D7, library screen at 2 μg/mL, 72 h, % growth, replicate 2, read-out: Pf_72h_%Growth_Rep2", "value": 87.2, "unit": "%"},
      {"measurement": "activity at 2 µg/mL", "setting": "[2]; 3D7, library screen at 2 μg/mL, 120 h, % growth, replicate 1, read-out: Pf_120h_%Growth_Rep1", "value": 85.5, "unit": "%"},
      {"measurement": "activity at 2 µg/mL", "setting": "[2]; 3D7, library screen at 2 μg/mL, 120 h, % growth, replicate 2, read-out: Pf_120h_%Growth_Rep2", "value": 82.2, "unit": "%"},
      {"measurement": "percent parasite growth at 2 µg/mL", "setting": "[3]; library screen at 2 μg/mL, % growth, replicate 1, read-out: Tg_72h_%Growth_Rep1", "value": 105, "unit": "%"},
      {"measurement": "percent parasite growth at 2 µg/mL", "setting": "[3]; library screen at 2 μg/mL, % growth, replicate 2, read-out: Tg_72h_%Growth_Rep2", "value": 86.3, "unit": "%"}
    ]},
    {"smiles": "CC[C@H]1CCC[C@H](O[C@H]2CC[C@H](N(C)C)[C@@H](C)O2)[C@@H](C)C(=O)C2=C[C@@H]3[C@@H](C=C[C@@H]4C[C@@H](O[C@@H]5O[C@@H](C)[C@H](OC)[C@@H](OC)[C@H]5OC)C[C@@H]34)[C@@H]2CC(=O)O1", "note": "[Spinosyn A]", "values": [
      {"measurement": "activity at 2 µg/mL", "setting": "[1]; Plasmodium falciparum, 3D7, 72 h, P. falciparum, 72 h, parasite screen 2 μg/mL, % growth, replicate 1, read-out: Pf_72h_%Growth_Rep1", "value": 5.81, "unit": "%"},
      {"measurement": "activity at 2 µg/mL", "setting": "[1]; Plasmodium falciparum, 3D7, 72 h, P. falciparum, 72 h, parasite screen 2 μg/mL, % growth, replicate 2, read-out: Pf_72h_%Growth_Rep2", "value": 3.23, "unit": "%"},
      {"measurement": "IC50", "setting": "[1]; Plasmodium falciparum, 3D7, 72 h treatment, mean ± S.D., n ≥ 3, read-out: IC50 (μM), P. falciparum", "value": "> 1", "unit": "µM"},
      {"measurement": "activity at 2 µg/mL", "setting": "[2]; 3D7, 120 h, P. falciparum, 120 h, parasite screen 2 μg/mL, % growth, replicate 1, read-out: Pf_120h_%Growth_Rep1", "value": 0.89, "unit": "%"},
      {"measurement": "activity at 2 µg/mL", "setting": "[2]; 3D7, 120 h, P. falciparum, 120 h, parasite screen 2 μg/mL, % growth, replicate 2, read-out: Pf_120h_%Growth_Rep2", "value": -4.31, "unit": "%"},
      {"measurement": "percent parasite growth at 2 µg/mL", "setting": "[3]; T. gondii, parasite screen 2 μg/mL, % growth, replicate 1, read-out: Tg_72h_%Growth_Rep1", "value": 56.8, "unit": "%"},
      {"measurement": "percent parasite growth at 2 µg/mL", "setting": "[3]; T. gondii, parasite screen 2 μg/mL, % growth, replicate 2, read-out: Tg_72h_%Growth_Rep2", "value": 95.1, "unit": "%"}
    ]},
    {"smiles": "C[C@H]1CC[C@H]2[C@@H](C=C[C@@H]3[C@H]4[C@@H](C)O[C@]5(O)[C@@H](CO)N(C)C(=O)[C@]45C(=O)[C@@]32C)C1", "note": "[Fusarisetin A]", "values": [
      {"measurement": "Pf_72h_%Growth_Rep1", "setting": "[1]; [4]", "value": 74.99, "unit": "%"},
      {"measurement": "Pf_72h_%Growth_Rep2", "setting": "[1]; [5]", "value": 87.91, "unit": "%"},
      {"measurement": "Pf_120h_%Growth_Rep1", "setting": "[2]; [6]", "value": 74.69, "unit": "%"},
      {"measurement": "Pf_120h_%Growth_Rep2", "setting": "[2]; [7]", "value": 108.30, "unit": "%"},
      {"measurement": "Tg_72h_%Growth_Rep1", "setting": "[3]; [8]", "value": 159.47, "unit": "%"},
      {"measurement": "Tg_72h_%Growth_Rep2", "setting": "[3]; [9]", "value": 97.52, "unit": "%"}
    ]},
    {"smiles": "CO[C@@H]1[C@@H](O)[C@@H](O)[C@@H](Oc2ccc3c(O)c(NC(=O)c4ccc(O)c(CC=C(C)C)c4)c(=O)oc3c2C)OC1(C)C", "note": "[Descarbamylnovobiocin]", "values": [
      {"measurement": "Pf_72h_%Growth_Rep1", "setting": "[1]; [4]", "value": 85.51, "unit": "%"},
      {"measurement": "Pf_72h_%Growth_Rep2", "setting": "[1]; [5]", "value": 80.09, "unit": "%"},
      {"measurement": "Pf_120h_%Growth_Rep1", "setting": "[2]; [6]", "value": 85.93, "unit": "%"},
      {"measurement": "Pf_120h_%Growth_Rep2", "setting": "[2]; [7]", "value": 82.51, "unit": "%"},
      {"measurement": "Tg_72h_%Growth_Rep1", "setting": "[3]; [8]", "value": 154.63, "unit": "%"},
      {"measurement": "Tg_72h_%Growth_Rep2", "setting": "[3]; [9]", "value": 96.44, "unit": "%"}
    ]},
    {"smiles": "Cc1c2c(c(O)c3c(O)cccc13)C(=O)[C@]1(O)C(O)=C(C(N)=O)C(=O)[C@H](N(C)C)[C@@H]1C2.Cl", "note": "[Epianhydrotetracycline hydrochloride]", "values": [
      {"measurement": "Pf_72h_%Growth_Rep1", "setting": "[1]; [4]", "value": 83.48, "unit": "%"},
      {"measurement": "Pf_72h_%Growth_Rep2", "setting": "[1]; [5]", "value": 108.73, "unit": "%"},
      {"measurement": "Pf_120h_%Growth_Rep1", "setting": "[2]; [6]", "value": 77.42, "unit": "%"},
      {"measurement": "Pf_120h_%Growth_Rep2", "setting": "[2]; [7]", "value": 113.33, "unit": "%"},
      {"measurement": "Tg_72h_%Growth_Rep1", "setting": "[3]; [8]", "value": 166.02, "unit": "%"},
      {"measurement": "Tg_72h_%Growth_Rep2", "setting": "[3]; [9]", "value": 109.09, "unit": "%"}
    ]},
    {"smiles": "COc1cc(=O)oc(/C=C/C=C/C=C/C(C)=C/[C@@]2(C)O[C@H](C)[C@](C)(O)[C@H]2O)c1C", "note": "[Citreoviridin]", "values": [
      {"measurement": "Pf_72h_%Growth_Rep1", "setting": "[1]; P. falciparum, 72 h, screen at 2 μg/mL, replicate 1", "value": 92.20, "unit": "%"},
      {"measurement": "Pf_72h_%Growth_Rep2", "setting": "[1]; P. falciparum, 72 h, screen at 2 μg/mL, replicate 2", "value": 86.47, "unit": "%"},
      {"measurement": "Pf_120h_%Growth_Rep1", "setting": "[2]; P. falciparum, 120 h, screen at 2 μg/mL, replicate 1", "value": 141.81, "unit": "%"},
      {"measurement": "Pf_120h_%Growth_Rep2", "setting": "[2]; P. falciparum, 120 h, screen at 2 μg/mL, replicate 2", "value": 93.96, "unit": "%"},
      {"measurement": "Tg_72h_%Growth_Rep1", "setting": "[3]; T. gondii, screen at 2 μg/mL, replicate 1", "value": 86.37, "unit": "%"},
      {"measurement": "Tg_72h_%Growth_Rep2", "setting": "[3]; T. gondii, screen at 2 μg/mL, replicate 2", "value": 89.97, "unit": "%"}
    ]}
  ]
}
